The values below come from patent publication US7790710B2, “Imidazopyridine derivatives useful as iNOS inhibitors” (NYCOMED GmbH, priority 2005, dated 2010).

The target in data set [1] is T1, human inducible NO-synthase (Homo sapiens, UniProt P35228). Description: Measurement of inducible NO-synthase activity in the presence of 20% human plasma serum. Format: biochemical. The note with it: 20% (v/v) human plasma serum added into the reaction volume; read-out: Inhibition of iNOS activity -logIC50 20% human serum (converted). As to the method:
(§1) The assay is performed in 96-well microtiter F-plates (Greiner, Frickenhausen, FRG) in a total volume of 100 μl in the presence of 100 nM calmodulin, 226 μM CaCl2, 477 μM MgCl2, 5 μM flavin-adenine-dinucleotide (FAD), 5 μM flavin mononucleotide (FMN), 0.1 mM nicotinamide adenine dinucleotide phosphate (NADPH), 7 mM glutathione, 10 μM tetrahydrobiopterine (BH4) and 100 mM 4-(2-hydroxyethyl)piperazine-1-ethanesulfonic acid (HEPES) pH 7.2. Arginine concentrations are 0.1 μM for enzyme inhibition experiments. 150000 dpm of [^3H]arginine are added to the assay mixture. Enzyme reaction is started by the addition of 4 μg of a crude cytosolic fraction containing human inducible NO-synthase and the reaction mixture is incubated for 45 to 60 min at 37° C. Enzyme reaction is stopped by adding 10 μl of 2M 2-morpholinoethane sulfonic acid buffer (MES-buffer) pH 5.0. 50 μl of the incubation mixture are transferred into a MADP N65 filtration microtiter plate (Millipore, Eschborn, FRG) containing already 50 μl of AG-50W-X8 cation exchange resin (Biorad, München, FRG). The resin in the Na loaded form is pre-equilibrated in water and 70 μl (corresponding to 50 μl dry beads) are pipetted under heavy stirring with a 8 channel pipette into the filtration plate. After pipetting 50 μl of the enzyme reaction mixture onto the filtration plates, the plates are placed on a filtration manifold (Porvair, Shepperton, UK) and the flow through is collected in Pico scintillation plates (Packard, Meriden, Conn.). The resin in the filtration plates is washed with 75 μl of water (1×50 μl and 1×25 μl) which is also collected in the same plate as the sample. The total flow through of 125 μl is mixed with 175 μl of Microscint-40 scintillation cocktail (Packard) and the scintillation plate is sealed with TopSeal P-foil (Packard). Scintillation plates are counted in a szintillation counter.
(§2) For the measurement of inducible NO-synthase-inhibiting potencies of compounds according to the invention increasing concentrations of inhibitors are included into the incubation mixture. IC50 values are calculated from the percent inhibition at given concentrations by nonlinear least square fitting.
The assay determining the human plasma serum binding of compounds according to the invention was performed essentially as the enzymatic activity assay described above. Human plasma serum 20% (v/v) was added into the reaction volume. Human serum was obtained after coagulation and sedimentation of drawn donor blood. After centrifugation (two times 3500 rpm, 30 min) the plasma serum was dialyzed in phosphate buffered saline (PBS) for 18 h using dialysis cassettes with a molecular weight cuttoff of 3500 Dalton (Slide-a-Lyzer 3.5 K, Pierce, Rockford Ill.) in order to reduce the L-arginine concentration that is interfering with the radioactive activity assay. The buffer was refreshed 5 times during dialysis. The serum was aliquoted and frozen at −20° C. until use. Inhibitory potency of the compounds according to the invention was determined as described above.

Data set [2] addresses T1, human inducible NO-synthase. The experiment in a line: Measurement of inducible NO-synthase activity. The note with it: crude cytosolic fraction containing human iNOS; 0.1 μM arginine; [3H]arginine; read-out: Inhibition of iNOS activity -logIC50 (converted). Format: biochemical. Here is the method:
as §1, §2

On to `COc1ccc(-c2cnc3[nH]c(CCC4CCCCC(N)=N4)nc3c2)cc1` (stereo not shown) [compound 3, 7-{2-[6-(4-Methoxy-phenyl)-3H-imidazo[4,5-b]pyridin-2-yl]-ethyl}-4,5,6,7-tetrahydro-3H-azepin-2-ylamine], for which the melting point was determined as 306 °C. Also, the IC50 in data set [1] was 1580 nM. For the same molecule, the IC50 in data set [2] is 251 nM.
`Cc1ccccc1NS(=O)(=O)c1ccc(-c2cnc3[nH]c(CCC4CCCCC(N)=N4)nc3c2)cc1` (stereo not shown) [compound 9, 4-{2-[2-(7-Amino-3,4,5,6-tetrahydro-2H-azepin-2-yl)-ethyl]-3H-imidazo[4,5-b]pyridin-6-yl}-N-o-tolyl-benzenesulfonamide]: the melting point was determined as 215 °C. Further, the IC50 in data set [2] was 398 nM.
As to `CN(CC1CCCO1)S(=O)(=O)c1ccc(-c2cnc3[nH]c(CCC4CCCCC(N)=N4)nc3c2)cc1` (stereo not shown) [compound 10, 4-{2-[2-(7-Amino-3,4,5,6-tetrahydro-2H-azepin-2-yl)-ethyl]-3H-imidazo[4,5-b]pyridin-6-yl}-N-methyl-N-(tetrahydro-furan-2-ylmethyl)-benzenesulfonamide], the melting point stood at 260 °C. For the same molecule, the IC50 in data set [2] is 617 nM.
For `Cc1ccc(NS(=O)(=O)c2ccc(-c3cnc4[nH]c(CCC5CCCCC(N)=N5)nc4c3)cc2)c(F)c1` (stereo not shown) [compound 8, 4-{2-[2-(7-Amino-3,4,5,6-tetrahydro-2H-azepin-2-yl)-ethyl]-3H-imidazo[4,5-b]pyridin-6-yl}-N-(2-fluoro-4-methyl-phenyl)-benzenesulfonamide] the same measures were 265 °C and 589 nM.
Take `NC1=NC(CCc2nc3cc(-c4ccc(S(=O)(=O)N5CCC5)cc4)cnc3[nH]2)CCCC1` (stereo not shown) [compound 6, 7-(2-{6-[4-(Azetidine-1-sulfonyl)-phenyl]-3H-imidazo[4,5-b]pyridin-2-yl}-ethyl)-4,5,6,7-tetrahydro-3H-azepin-2-ylamine]: the melting point was 154 °C (dec.). Further, the IC50 in data set [1] is 603 nM. The IC50 in data set [2] is 302 nM.
The like results for `CN(C)S(=O)(=O)c1ccc(-c2cnc3[nH]c(CCC4CCCCC(N)=N4)nc3c2)cc1` (stereo not shown) [compound 5, 4-{2-[2-(7-Amino-3,4,5,6-tetrahydro-2H-azepin-2-yl)-ethyl]-3H-imidazo[4,5-b]pyridin-6yl}-N,N-dimethyl-benzenesulfonamide] were, in that order, 195 °C (dec.), 933 nM and 229 nM.
For the molecule `NC1=NC(CCc2nc3cc(-c4ccccc4)cnc3[nH]2)CCCC1` (stereo not shown) [compound 1, 7-[2-(6-Phenyl-3H-imidazo[4,5-b]pyridin-2-yl)-ethyl]-4,5,6,7-tetrahydro-3H-azepin-2-ylamine], the melting point is 117 °C (dec.). The IC50 in data set [1] was 1000 nM. In addition, the IC50 in data set [2] was 170 nM.
`CCN1CCN(S(=O)(=O)c2ccc(-c3cnc4[nH]c(CCC5CCCCC(N)=N5)nc4c3)cc2)CC1` (stereo not shown) [compound 7, 7-(2-{6-[4-(4-Ethyl-piperazine-1-sulfonyl)-phenyl]-3H-imidazo[4,5-b]pyridin-2-yl}-ethyl)-4,5,6,7-tetrahydro-3H-azepin-2-ylamine] yielded a melting point of 199 °C. Also, in data set [2], the IC50 was 468 nM.
For the molecule `NC1=NC(CCc2nc3cc(-c4cc5ccccc5o4)cnc3[nH]2)CCCC1` (stereo not shown) [compound 4, 7-[2-(6-Benzofuran-2-yl-3H-imidazo[4,5-b]pyridin-2-yl)-ethyl]-4,5,6,7-tetrahydro-3H-azepin-2-ylamine], the figures for the IC50 in data set [1] and in data set [2] were 955 nM and 229 nM, respectively.
Take `N#Cc1ccc(-c2cnc3[nH]c(CCC4CCCCC(N)=N4)nc3c2)cc1` (stereo not shown) [compound 2, 7-[2-(6-{4-Cyano-phen-1-yl}-3H-imidazo[4,5-b]pyridin-2-yl)-ethyl]-4,5,6,7-tetrahydro-3H-azepin-2-ylamine]: the melting point is 175 °C (dec.). For the same molecule, the IC50 in data set [1] is 398 nM. For the same molecule, in data set [2], the IC50 was 224 nM.

As usually defined, the melting point is the temperature of the solid-liquid transition.
